Reference: patent US20230310388A1, “Methods and Compositions for Treating Fungal Infections” (Neoculi Pty Ltd, priority 2020, published 2023)
“And” between values parts separate entries of the source, which are not always exact repeats. Identical values can stand only once.

Tests used:
Format in all cases: cell-based
Candida albicans = test: CLSI broth microdilution MIC (Example 4)
Method: (§1) Antifungal minimum inhibitory concentration (MIC) testing was undertaken as recommended by the CLSI. Briefly, antifungal susceptibility tests were performed for amphotericin B, robenidine (NCL812) and robenidine (NCL) analogs (NCL004, NCL020, NCL023, NCL024, NCL062, NCL094, NCL097, NCL110, NCL113, NCL114, NCL115, NCL135, NCL139, NCL180, NCL181, NCL195, NCL219, NCL220, NCL228, NCL247, NCL250, NCL259, NCL260, NCL263, NCL265, NCL269, NCL274) by standard broth microdilution method (CLSI) in RPMI 1640. Various concentrations (ranging from high to low) of the selected compounds were prepared in RPMI 1640 medium by double dilution in 96-well microtitre plates. Each well contained an inoculum of approximately 2×10^3 cells/mL. The wells without addition of drugs served as negative (no inoculum) and positive (inoculum only) growth controls. Microtitre plates were incubated at 35° C. for 24-48 hours. […] Antifungal MICs were determined for each isolate in duplicate; if the values obtained were different, the MIC test was repeated a third time.

Cryptococcus neoformans = test: CLSI broth microdilution MIC (Example 4)
Method: as §1

[1] = system: Candida albicans ATCC14053; test: Broth micro-dilution screen at 16 μg/mL and MIC (Example 9); settings: for Screen at 16 μg/mL: single concentration 16 μg/mL, Growth or No growth of C. albicans ATCC14053; for MIC: C. albicans ATCC14053, test range 0.25-64 μg/mL, duplicate
Method: The antifungal activity of 201 NCL analogs against Candida albicans ATCC14053 in vitro was investigated. A broth micro-dilution method was used, according to CLSI guidelines as described. NCL analogs were dissolved in DMSO and originally screened at a single concentration of 16 μg/mL.

SMILES	MIC at 24-48 hours (Candida albicans; Candida albicans ATCC 90028) [µg/mL]	MIC at 24-48 hours (Candida albicans; Candida albicans SA3) [µg/mL]	MIC at 24-48 hours (Cryptococcus neoformans; Cryptococcus neoformans SA1) [µg/mL]	MIC at 24-48 hours (Cryptococcus neoformans; Cryptococcus neoformans SA2) [µg/mL]	Screen at 16 μg/mL [1]	MIC [1]
Cl.N=C(NN=Cc1ccccc1Cl)NN=Cc1ccccc1Cl [NCL020]	>32	>32	>32	>32	Growth	–
Cl.N=C(NN=CC1CCCCC1)NN=CC1CCCCC1 [NCL094]	>32	>32	>32	>32	Growth	–
Clc1ccc(/C=N/CC/N=C/c2ccc(Cl)cc2)cc1 [NCL250]	>32	>32	>32	>32	Growth	–
Cl.N=C(NN=Cc1cc(Cl)cc(Cl)c1)NN=Cc1cc(Cl)cc(Cl)c1 [NCL114]	>32	>32	>32	>32	Growth	–
OCC(=NNc1cc(NN=C(CO)c2ccc(Cl)cc2)ncn1)c1ccc(Cl)cc1 [NCL180]	>32	>32	>32	>32	Growth	–
Clc1ccc(C=NNc2cc(NN=Cc3ccc(Cl)cc3)ncn2)cc1 [NCL181]	>32	>32	>32	>32	Growth	–
CCCCCCNC(=O)N(N=Cc1ccc(Cl)cc1)C(N)=NN=Cc1ccc(Cl)cc1 [NCL228]	>32	>32	>32	>32	No growth	0.5 µg/mL and 1 µg/mL
Cl.N=C(NN=Cc1cnc2ccccc2c1)NN=Cc1cnc2ccccc2c1 [NCL139]	>32	>32	>32	>32	No growth	<0.5 µg/mL
Cl.N=C(NN=Cc1ccc([N+](=O)[O-])cc1)NN=Cc1ccc([N+](=O)[O-])cc1 [NCL110]	>32	>32	>32	>32	Growth	–
COc1cc(Br)c(C=NNC(=N)NN=Cc2cc(OC)c(OC)cc2Br)cc1OC.Cl [NCL135]	>32	>32	>32	>32	Growth	–
CC(=NNC(=N)N)c1c[nH]c2ccccc12 [NCL269]	>32	>32	>32	>32	Growth	–
Cl.N=C(NN=Cc1ccccc1)NN=Cc1ccccc1 [NCL100]	–	–	–	–	Growth	–
N=C(N)NN=Cc1cccc2ccccc12 [NCL248]	–	–	–	–	Growth	–
Nc1nc(NN=Cc2ccc3ccccc3c2)cc(NN=Cc2ccc3ccccc3c2)n1 [NCL264]	–	–	–	–	Growth	–
Cl.N=C(NN=Cc1cc(O)c(O)cc1O)NN=Cc1cc(O)c(O)cc1O [NCL104]	–	–	–	–	Growth	–
Cl.N=C(NN=Cc1ccccc1O)NN=Cc1ccccc1O [NCL107]	–	–	–	–	No growth	2 µg/mL and 4 µg/mL
Cl.N=C(NN=Cc1c(Cl)cccc1Cl)NN=Cc1c(Cl)cccc1Cl [NCL137]	–	–	–	–	Growth	–

SMILES	MIC at 24-48 hours (Candida albicans; Candida albicans ATCC 90028) [µg/mL]	MIC at 24-48 hours (Candida albicans; Candida albicans SA3) [µg/mL]	MIC at 24-48 hours (Cryptococcus neoformans; Cryptococcus neoformans SA1) [µg/mL]	MIC at 24-48 hours (Cryptococcus neoformans; Cryptococcus neoformans SA2) [µg/mL]	Screen at 16 μg/mL [1]	MIC [1]
CC(=NNC(=N)NN=C(C)c1ccccc1)c1ccccc1.Cl [NCL143]	–	–	–	–	Growth	–
Cl.N=C(NN=Cc1ccc(O)cc1)NN=Cc1ccc(O)cc1 [NCL151]	–	–	–	–	Growth	–
Clc1ccc(CNCCNCc2ccc(Cl)cc2)cc1 [NCL260]	>32	>32	>32	>32	Growth	–
Cc1cccc(C=NNC(=N)N)c1.Cl [NCL046]	–	–	–	–	Growth	–
Cl.N=C(NN=Cc1cccc(C(=O)O)c1)NN=Cc1cccc(C(=O)O)c1 [NCL098]	–	–	–	–	Growth	–
Cl.N=C(N)N/N=C/c1ccc(C(F)(F)F)cc1F [NCL263]	>32	>32	>32	>32	Growth	–
Clc1ccc(CNCCCCNCc2ccc(Cl)cc2)cc1 [NCL258]	–	–	–	–	Growth	–
CC(=NNC(=N)NN=C(C)c1ccc(Cl)cc1F)c1ccc(Cl)cc1F.Cl [NCL215]	–	–	–	–	Growth	–
Cl.N=C(NN=Cc1ccc(F)c(F)c1)NN=Cc1ccc(F)c(F)c1 [NCL123]	–	–	–	–	No growth	1 µg/mL
Cl.N#Cc1ccc(C=NNC(=N)N)cc1 [NCL031]	–	–	–	–	Growth	–
Nc1nc(N/N=C/c2ccc(F)c(F)c2)cc(N/N=C/c2ccc(F)c(F)c2)n1 [NCL222]	–	–	–	–	Growth	–
Cc1ccccc1/C=N/NC(=N)N/N=C/c1ccccc1C.Cl [NCL039]	–	–	–	–	No growth	4 µg/mL and 8 µg/mL
Cl.N=C(NN=C(C(=O)O)c1ccccc1)NN=C(C(=O)O)c1ccccc1 [NCL167]	–	–	–	–	Growth	–
CCC(=NNC(=N)NN=C(CC)c1ccc(Cl)cc1)c1ccc(Cl)cc1.Cl [NCL153]	–	–	–	–	Growth	–
Cl.N=C(NN=Cc1cc(Br)co1)NN=Cc1cc(Br)co1 [NCL133]	–	–	–	–	Growth	–
COc1cccc(C=NNC(=O)NN=Cc2cccc(OC)c2)c1 [NCL010]	–	–	–	–	Growth	–
Nc1nc(NN=Cc2ccc(Cl)nc2)cc(NN=Cc2ccc(Cl)nc2)n1 [NCL238]	–	–	–	–	Growth	–
